Experimental data: patent US20050033056A1, “Hydroxylated indole derivatives and uses thereof” (priority 2001, published 2005)

Columns and labels:
CYP2C19 = CYP2C19 (Homo sapiens, UniProt P33261); assay: Compound 1 metabolism / metabolite formation by recombinant CYP2C19; type: in vitro ADME; design: purchased Gentest Corp. (Woburn, Mass.); host or cells: insect cells (microsomal preparation)
Experimental: (§1) The metabolism of Compound 1 was determined by the disappearance of Compound 1 or the appearance of Compound 1 metabolites in reaction mixtures as compared to respective controls. Compound 1 was incubated in the reconstituted in vitro reaction systems containing pooled human liver S9 fractions, microsomal preparations, or recombinant hepatic CYP forms, including CYP1A2, CYP2C9, CYP2C19, CYP2D6, CYP2E1, and CYP3A4. The reaction mixture (total volume of 250 μL) contained 0.5 mg of liver microsomal protein, 50 or 25 pmol of recombinant CYP, and Compound 1 (50-80 μM) in 50 mM Tris buffer containing 15 mM MgCl2 (pH 7.4). After incubating at 37° C. with gentle shaking for 1 minute, the reaction was initiated by adding 25 μL of NADPH solution (20 mg/mL), and was carried out for 1 hour. The reaction was terminated by quickly cooling the test tube on ice, followed by the addition of an equal volume of 100% methanol. The samples were centrifuged in a desktop centrifuge at 14,000 rpm for 5 minutes, and the supernatants were filtered through syringe filters (13 mm, 0.45 μm). The filtrates were subjected to analysis using LC/MS (ion trap) or LC/MS/MS.
(§2) 1. LC/MS (LCQ ion trap mass spectrometer, Finnigan Corp., San Jose, Calif.): Hewlett Packard 1100 HPLC system (Waldbronn, Germany) consisted of a binary pump, an autosampler, a column compartment unit, and an online variable wavelength UV detector (VWD). The detector was monitored at 270 nm, which is the UVmax of Compound 1 predetermined by scanning between 225-400 nm using a photodiode array detector (PDA). The metabolites were separated on a Hewlett Packard Eclipse C18 column (150×2.1 mm). The mobile phases were 10 nmM ammonium acetate at pH 4.8 (A) and acetonitrile (B). The gradient (B) was 10% (0-6 minutes), 22% (12-22 minutes), 90% (25-30 minutes), and 10% (31 minutes and after). The flow rate was 0.25 mL/minute. Software Navigator (Version 1.2, Finnigan Corp.) was used to control the HPLC and MS and to acquire the data. The MS was operated at positive electrospray ionization (ESI) with 5.2 kV ionization potential and 220° C. heated capillary temperature. The product ion spectra were generated under 24V collision energy, which was optimized for the fragmentation of Compound 1.
2. LC/MS/MS (SCIEX API2000 triple quadrupole mass spectrometer, PE Biosystem, Foster City, Calif.): The same HPLC system described above was coupled with a tandem mass spectrometer. The metabolites were separated on a Sulpelco Discovery C18 column (150×2.1 mm), and the mobile phase described previously was run at 1.0 mL/min with a 1:10 split. The gradient (B) was 20% (0-6 minutes), 60% (14-18 minutes), 95% (20-24 minutes), and 20% (25 minutes and after). The operation of the HPLC and the MS/MS was controlled by MacChrom (Version 1.6, PE Biosystem). […]

CYP3A4 = CYP3A4 (Homo sapiens, UniProt P08684); assay: Compound 1 metabolism / metabolite formation by recombinant CYP3A4; type: in vitro ADME; design: purchased Gentest Corp. (Woburn, Mass.); host or cells: insect cells (microsomal preparation); settings: recombinant CYP3A4; estimated by UV absorbance at 270 nm; metabolite formed or Compound 1 left after 1 hour with NADPH
CYP3A4, sequence (P08684 whole entry): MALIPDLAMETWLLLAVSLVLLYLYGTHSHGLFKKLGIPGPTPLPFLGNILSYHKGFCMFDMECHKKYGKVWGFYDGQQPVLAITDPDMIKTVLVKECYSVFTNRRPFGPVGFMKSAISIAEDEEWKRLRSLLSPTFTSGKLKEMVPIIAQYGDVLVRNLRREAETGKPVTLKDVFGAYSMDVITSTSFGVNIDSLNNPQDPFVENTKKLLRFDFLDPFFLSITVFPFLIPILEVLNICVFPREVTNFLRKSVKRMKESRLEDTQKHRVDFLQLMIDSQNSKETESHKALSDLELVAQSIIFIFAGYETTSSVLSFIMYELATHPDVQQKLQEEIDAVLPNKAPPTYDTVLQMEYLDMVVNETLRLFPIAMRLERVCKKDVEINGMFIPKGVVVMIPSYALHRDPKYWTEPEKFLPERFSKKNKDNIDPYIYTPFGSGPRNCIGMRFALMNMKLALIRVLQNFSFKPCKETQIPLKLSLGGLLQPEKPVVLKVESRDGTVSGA
Experimental: as §1
as §2, with “The MS was operated at positive electrospray ionization (ESI) with 5.2 kV ionization potential and 220° C. heated capillary temperature. The product ion spectra were generated under 24V collision energy, which was optimized for the fragmentation of Compound 1.” left out

[1] = test system: pooled human liver microsomal preparations (HLM); assay: Compound 1 metabolism / metabolite formation in reconstituted system with pooled HLM; type: in vitro ADME; settings: estimated by UV absorbance at 270 nm, metabolite formed or Compound 1 left after 1 hour with NADPH
Experimental: as §1
1. […] The detector was monitored at 270 nm, which is the UVmax of Compound 1 predetermined by scanning between 225-400 nm using a photodiode array detector (PDA). […]

CYP2D6 = CYP2D6 (Homo sapiens, UniProt P10635); assay: Compound 1 metabolism / metabolite formation by recombinant CYP2D6; type: in vitro ADME; design: purchased Gentest Corp. (Woburn, Mass.); host or cells: insect cells (microsomal preparation); settings: recombinant CYP2D6, NADPH
CYP2D6, sequence (P10635 whole entry): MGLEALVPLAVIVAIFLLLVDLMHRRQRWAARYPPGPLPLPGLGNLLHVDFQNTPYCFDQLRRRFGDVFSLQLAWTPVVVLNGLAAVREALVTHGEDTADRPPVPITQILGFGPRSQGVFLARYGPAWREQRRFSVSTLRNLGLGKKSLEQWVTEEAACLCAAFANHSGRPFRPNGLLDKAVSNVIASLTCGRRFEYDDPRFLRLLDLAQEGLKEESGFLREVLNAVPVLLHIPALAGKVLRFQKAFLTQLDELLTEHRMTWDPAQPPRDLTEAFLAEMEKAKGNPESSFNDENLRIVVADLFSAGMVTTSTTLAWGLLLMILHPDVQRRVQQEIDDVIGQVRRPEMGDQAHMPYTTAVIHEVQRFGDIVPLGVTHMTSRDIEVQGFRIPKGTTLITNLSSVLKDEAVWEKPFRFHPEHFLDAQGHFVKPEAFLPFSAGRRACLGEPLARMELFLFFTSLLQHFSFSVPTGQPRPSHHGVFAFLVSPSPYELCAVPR
Experimental: as §1
as §2, with “The MS was operated at positive electrospray ionization (ESI) with 5.2 kV ionization potential and 220° C. heated capillary temperature. The product ion spectra were generated under 24V collision energy, which was optimized for the fragmentation of Compound 1.” left out

CYP1A1/2 = assay: CYP induction in primary human hepatocytes, Western immunoblotting: CYP1A1/2; type: cell-based; settings: TCDD 0.4 μM, 72 hours
Experimental: Upon receiving a primary culture of human hepatocytes in 6-well plates, the culture medium containing streptomycin/penicillin was refreshed (2 ml/well). […] Compound 1 stock solution was added to the culture medium at a 1:400 ratio (v/v). The culture medium and testing compounds were replenished every 24 hours.
At the end of the treatment, the cells were harvested into 1 mL of phosphate-buffered saline (PBS) after washing twice. The cells were precipitated by centrifugation, and were resuspended in PBS (approximately 50 μL). The sample preparation, after mixing with […] of Laemmli buffer (62.5 mM Tris-HCl containing 2% SDS, 25% glycerol, and 0.01% bromophenol, pH 6.8) and being rocked for 2-4 hours, was mixed with 10 μL of 2-mercaptoethanol, and heated at 90° C. for 10 minutes before electrophoresis.
Proteins were resolved in a 12% SDS-PAGE gel using a mini gel apparatus at a constant voltage ([…]) for 70-80 minutes, and transferred onto a polyvinylidene difluoride (PVDF) membrane using a membrane-transferring unit at a constant voltage ([…]) for 60 minutes. The membrane was blocked by 5% non-fat dried milk (NFDM) blotting buffer (PBS containing 0.05% Tween 20) at 4° C. overnight. […] CYP proteins were detected by […] using an X-ray developer.

CYP2C19, sequence (P33261 whole entry): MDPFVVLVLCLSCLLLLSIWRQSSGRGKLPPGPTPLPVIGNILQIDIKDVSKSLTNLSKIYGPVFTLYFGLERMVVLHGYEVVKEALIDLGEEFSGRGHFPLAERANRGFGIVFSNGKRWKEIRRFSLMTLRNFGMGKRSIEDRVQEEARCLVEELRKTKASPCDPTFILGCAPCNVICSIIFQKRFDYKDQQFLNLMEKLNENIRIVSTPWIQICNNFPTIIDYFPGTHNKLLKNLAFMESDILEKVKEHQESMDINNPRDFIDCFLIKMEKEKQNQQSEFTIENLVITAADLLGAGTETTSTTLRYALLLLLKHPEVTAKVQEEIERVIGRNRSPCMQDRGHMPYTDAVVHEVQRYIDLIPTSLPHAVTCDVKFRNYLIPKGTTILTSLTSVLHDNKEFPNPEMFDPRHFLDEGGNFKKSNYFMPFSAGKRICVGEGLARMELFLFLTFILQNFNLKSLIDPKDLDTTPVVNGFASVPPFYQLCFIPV

formation of the metabolite from Compound 1 by CYP2C19 (in words) (CYP2C19; recombinant CYP2C19, NADPH)	Rel. Amount (%) (CYP2C19; recombinant CYP2C19, estimated by UV absorbance at 270 nm, metabolite formed or Compound 1 left after 1 hour with NADPH)	Rel. Amount (%) (CYP3A4)	Rel. Amount (%) [1] [%]	formation of the metabolite from Compound 1 by CYP2D6 (in words) (CYP2D6)	Structure (SMILES)	expression of CYP1A1/2 (Western immunoblotting), positive control (CYP1A1/2)
formed	20	31	21	formed	CNC(=O)Cc1ccc2ccn(C3CCNCC3)c2c1 [Compound M4]	–
–	–	–	–	–	Clc1cc2c(cc1Cl)Oc1cc(Cl)c(Cl)cc1O2 [TCDD, 2,3,7,8-tetrachlorodibenzo-p-dioxin, reference compound]	elevated expressions
